Experimental data taken from PubChem BioAssay AID182 (DTP/NCI, 2004).
Inconclusive results and toxic doses are left out.

Test system: BDF1 mice, P388/ADR leukemia ip, median survival T/C
Test: NCI In Vivo Anticancer Drug Screen. Data for tumor model P388 Leukemia resistant to Adriamycin; NSC 123127, Developed at Scr 06 and 41 (intraperitoneal) in B6D2F1 (BDF1) mice
Conditions: endpoint: median survival time, higher = longer survival
Experimental: The antitumor activity of compounds was measured in mice bearing transplantable tumors. Survival or tumor size were measured and the results are expressed as the measurement made in the treated group (T) divided by the measurement made in the vehicle treated control group (C). The tumor model used in this assay is P388 Leukemia resistant to Adriamycin; NSC 123127, Developed at Scr 06 and 41 (intraperitoneal) in B6D2F1 (BDF1) mice

[1] = dose: 18.0 mg/kg/injection, schedule: Q04DX003 (ip), vehicle: saline
[2] = dose: 21.6 mg/kg/injection, schedule: Q04DX003 (ip), vehicle: saline
[3] = dose: 6.48 mg/kg/injection, schedule: Q04DX003 (ip), vehicle: saline
[4] = dose: 10.8 mg/kg/injection, schedule: Q04DX003 (ip), vehicle: saline
[5] = dose: 30.0 mg/kg/injection, schedule: Q04DX003 (ip), vehicle: saline

Cc1c(N)nc([C@H](CC(N)=O)NC[C@H](N)C(N)=O)nc1C(=O)N[C@H](C(=O)N[C@H](C)[C@@H](O)[C@H](C)C(=O)N[C@H](C(=O)NCCc1nc(-c2nc(C(=O)NCCC[S+](C)C)cs2)cs1)[C@@H](C)O)C(OC1OC(CO)C(O)C(O)C1OC1OC(CO)C(O)C(OC(N)=O)C1O)c1cnc[nH]1 (stereo not given in full) was tested, and the T/C (dose: 2.88 mg/kg/injection, schedule: Q01DX009 (ip), vehicle: saline) was 105 % of control, the T/C (dose: 4.8 mg/kg/injection, schedule: Q01DX009 (ip), vehicle: saline) was 107 % of control and the T/C (dose: 6.5 mg/kg/injection, schedule: Q01DX009 (ip), vehicle: saline) was 110 % of control. The T/C (dose: 8.0 mg/kg/injection, schedule: Q01DX009 (ip), vehicle: saline) was 105 % of control, the T/C (dose: 10.8 mg/kg/injection, schedule: Q01DX009 (ip), vehicle: saline) was 93 % of control and the T/C (dose: 13.33 mg/kg/injection, schedule: Q01DX009 (ip), vehicle: saline) was 103 % of control. The T/C (dose: 13.33 mg/kg/injection, schedule: Q04DX003 (ip), vehicle: saline) was 103 % of control, the T/C (dose: 18.0 mg/kg/injection, schedule: Q01DX009 (ip), vehicle: saline) was 95 % of control and the T/C (dose: 22.22 mg/kg/injection, schedule: Q04DX003 (ip), vehicle: saline) was 110 % of control. The T/C (dose: 30.0 mg/kg/injection, schedule: Q01DX009 (ip), vehicle: saline) was 90 % of control and the T/C (dose: 37.0 mg/kg/injection, schedule: Q04DX003 (ip), vehicle: saline) was 98 % of control.
For CN(Cc1cnc2nc(N)nc(N)c2n1)c1ccc(C(=O)N[C@@H](CCC(=O)O)C(=O)O)cc1, the T/C (dose: 10.8 mg/kg/injection, schedule: Q04DX003 (ip), vehicle: sodium bicarbonate) was 158 % of control, the T/C (dose: 18.0 mg/kg/injection, schedule: Q04DX003 (ip), vehicle: sodium bicarbonate) was 188 % of control and the T/C (dose: 30.0 mg/kg/injection, schedule: Q04DX003 (ip), vehicle: sodium bicarbonate) was 166 % of control. For the same compound, the T/C (dose: 50.0 mg/kg/injection, schedule: Q04DX003 (ip), vehicle: sodium bicarbonate) was 111 % of control.
CC1OC(O[C@H]2/C=C/C=C/C=C/C=C/C=C/C=C/C=C/[C@H](C)[C@@H](O)[C@@H](C)[C@H](C)OC(=O)C[C@H](O)C[C@H](O)CC[C@@H](O)[C@H](O)C[C@H](O)C[C@]3(O)C[C@H](O)[C@@H](C(=O)O)[C@H](C2)O3)C(O)C(N)C1O (stereo not given in full) was tested, and the T/C (dose: 20.0 mg/kg/injection, schedule: Q04DX003 (ip), vehicle: clinical formulation) was 93 % of control.
With COC(=O)C[C@](O)(CCCC(C)(C)O)C(=O)O[C@@H]1C(OC)=C[C@]23CCCN2CCc2cc4c(cc2[C@H]13)OCO4 the T/C (dose: 0.72 mg/kg/injection, schedule: Q04DX003 (ip), vehicle: acid diluted with saline) was 100 % of control, the T/C (dose: 1.2 mg/kg/injection, schedule: Q04DX003 (ip), vehicle: acid diluted with saline) was 103 % of control and the T/C (dose: 2.0 mg/kg/injection, schedule: Q04DX003 (ip), vehicle: acid diluted with saline) was 110 % of control.
COc1cc2c[n+](C)c3c4cc5c(cc4ccc3c2cc1OC)OCO5 was tested, and the T/C (dose: 28.8 mg/kg/injection, schedule: Q04DX003 (ip), vehicle: Klucel (hydroxypropylcellulose) (HPC)) was 123 % of control, the T/C (dose: 48.0 mg/kg/injection, schedule: Q04DX003 (ip), vehicle: Klucel (hydroxypropylcellulose) (HPC)) was 105 % of control and the T/C (dose: 55.0 mg/kg/injection, schedule: Q04DX003 (ip), vehicle: other) was 107 % of control. The T/C (dose: 80.0 mg/kg/injection, schedule: Q04DX003 (ip), vehicle: Klucel (hydroxypropylcellulose) (HPC)) was 124 % of control and the T/C (dose: 92.0 mg/kg/injection, schedule: Q04DX003 (ip), vehicle: other) was 106 % of control.
For COc1cccc2c1C(=N)c1c(O)c3c(c(O)c1C2=O)C[C@@](O)(C(C)=O)C[C@@H]3OC1CC(N)C(O)C(C)O1 (stereo not given in full), the T/C (dose: 3.46 mg/kg/injection, schedule: Q04DX003 (ip), vehicle: saline) was 99 % of control, the T/C (dose: 5.76 mg/kg/injection, schedule: Q04DX003 (ip), vehicle: saline) was 102 % of control and the T/C (dose: 9.6 mg/kg/injection, schedule: Q04DX003 (ip), vehicle: saline) was 115 % of control. The T/C (dose: 16.0 mg/kg/injection, schedule: Q04DX003 (ip), vehicle: saline) was 104 % of control.
With O=C[C@@H](CO)O[C@H](C=O)n1cnc2c(=O)[nH]cnc21 the T/C (dose: 180.0 mg/kg/injection, schedule: Q04DX003 (ip), vehicle: water) was 162 % of control and the T/C (dose: 300.0 mg/kg/injection, schedule: Q04DX003 (ip), vehicle: water) was 203 % of control.
With CO[C@H]1C[C@](C)(O)Cc2cc3c(c(O)c21)C(=O)c1c(O)cc2c(c1C3=O)O[C@@H]1O[C@@]2(C)[C@H](O)[C@@H](N(C)C)[C@@H]1O the T/C (dose: 18.0 mg/kg/injection, schedule: Q04DX003 (ip), vehicle: lactate) was 112 % of control, the T/C (dose: 30.0 mg/kg/injection, schedule: Q04DX003 (ip), vehicle: lactate) was 116 % of control and the T/C (dose: 50.0 mg/kg/injection, schedule: Q04DX003 (ip), vehicle: lactate) was 94 % of control.
In the case of CC[C@H]1CN2CCc3cc(OC)c(OC)cc3[C@@H]2C[C@@H]1C[C@H]1NCCc2cc(OC)c(OC)cc21, the T/C (dose: 7.78 mg/kg/injection, schedule: Q04DX003 (ip), vehicle: saline) is reported as 106 % of control, the T/C (dose: 9.0 mg/kg/injection, schedule: Q04DX003 (ip), vehicle: saline) is reported as 94 % of control and the T/C (dose: 13.0 mg/kg/injection, schedule: Q04DX003 (ip), vehicle: saline) is reported as 114 % of control. The T/C [1] was 100 % of control and the T/C [2] was 106 % of control.
For CC[C@@]1(O)C[C@H](OC2CC(N(C)C)C(OC3CC(O)C(OC4CC(O)C(O)C(C)O4)C(C)O3)C(C)O2)c2c(cc3c(c2O)C(=O)c2c(O)ccc(O)c2C3=O)[C@H]1C(=O)OC (stereo not given in full), the T/C (dose: 1.08 mg/kg/injection, schedule: Q04DX003 (ip), vehicle: water) was 106 % of control, the T/C (dose: 1.8 mg/kg/injection, schedule: Q04DX003 (ip), vehicle: water) was 109 % of control and the T/C (dose: 3.0 mg/kg/injection, schedule: Q04DX003 (ip), vehicle: water) was 120 % of control.
For O=c1[nH]cc(F)c(=O)[nH]1, the T/C [2] was 150 % of control, the T/C (dose: 36.0 mg/kg/injection, schedule: Q04DX003 (ip), vehicle: saline) was 174 % of control and the T/C (dose: 60.0 mg/kg/injection, schedule: Q04DX003 (ip), vehicle: saline) was 192 % of control.
In the case of COc1cccc2c1C(=O)c1c(O)c3c(c(O)c1C2=O)C[C@@](O)(C(=O)CO)C[C@@H]3OC1CC([N+](C)(C)C)C(O)C(C)O1 (stereo not given in full), the T/C (dose: 8.64 mg/kg/injection, schedule: Q04DX003 (ip), vehicle: water) is reported as 99 % of control and the T/C (dose: 14.4 mg/kg/injection, schedule: Q04DX003 (ip), vehicle: water) is reported as 99 % of control.
With CC[C@]1(O)C[C@H](OC2CC(N(C)C)C(OC3CC(O)C(O)C(C)O3)C(C)O2)c2c(cc3c(c2O)C(=O)c2c(O)ccc(O)c2C3=O)[C@H]1C(=O)OC (stereo not given in full) the T/C (dose: 3.46 mg/kg/injection, schedule: Q04DX003 (ip), vehicle: other) was 106 % of control, the T/C (dose: 5.76 mg/kg/injection, schedule: Q04DX003 (ip), vehicle: other) was 102 % of control and the T/C (dose: 9.6 mg/kg/injection, schedule: Q04DX003 (ip), vehicle: other) was 93 % of control.
In the case of O=CC(NC(=O)N(CCCl)N=O)C(O)C(O)C(O)CO (stereo not given), the T/C [3] is reported as 240 % of control, the T/C [4] is reported as 553 % of control and the T/C [1] is reported as 120 % of control.
With CC(CN1CC(=O)NC(=O)C1)N1CC(=O)NC(=O)C1 (stereo not given) the T/C (dose: 86.4 mg/kg/injection, schedule: Q04DX003 (ip), vehicle: Klucel (hydroxypropylcellulose) (HPC)) was 106 % of control, the T/C (dose: 100.0 mg/kg/injection, schedule: Q04DX003 (ip), vehicle: Klucel (hydroxypropylcellulose) (HPC)) was 100 % of control and the T/C (dose: 108.0 mg/kg/injection, schedule: Q04DX003 (ip), vehicle: Klucel (hydroxypropylcellulose) (HPC)) was 104 % of control. The T/C (dose: 144.0 mg/kg/injection, schedule: Q04DX003 (ip), vehicle: Klucel (hydroxypropylcellulose) (HPC)) was 122 % of control, the T/C (dose: 180.0 mg/kg/injection, schedule: Q04DX003 (ip), vehicle: Klucel (hydroxypropylcellulose) (HPC)) was 102 % of control and the T/C (dose: 200.0 mg/kg/injection, schedule: Q04DX003 (ip), vehicle: Klucel (hydroxypropylcellulose) (HPC)) was 93 % of control. For the same compound, the T/C (dose: 216.0 mg/kg/injection, schedule: Q04DX003 (ip), vehicle: Klucel (hydroxypropylcellulose) (HPC)) was 107 % of control, the T/C (dose: 300.0 mg/kg/injection, schedule: Q04DX003 (ip), vehicle: Klucel (hydroxypropylcellulose) (HPC)) was 102 % of control and the T/C (dose: 400.0 mg/kg/injection, schedule: Q04DX003 (ip), vehicle: Klucel (hydroxypropylcellulose) (HPC)) was 93 % of control.
With CCC1=C(C[C@H]2NCCc3cc(OC)c(OC)cc32)C[C@H]2c3cc(OC)c(OC)cc3CCN2C1 the T/C [4] was 108 % of control, the T/C [1] was 96 % of control and the T/C [5] was 107 % of control.
With COc1cccc2c1C(=O)c1c(O)c3c(c(O)c1C2=O)CC(O)(C(=O)CO)CC3OC1CC(N)C(O)C(C)O1 (stereo not given) the T/C (dose: 1.73 mg/kg/injection, schedule: Q01DX004 (ip), vehicle: water) was 103 % of control, the T/C [3] was 107 % of control and the T/C [4] was 93 % of control. The T/C [1] was 106 % of control and the T/C [5] was 94 % of control.
With C[n+]1ccc(Nc2ccc(NC(=O)c3ccc(Nc4cc[n+](C)c5ccc(N)cc45)cc3)cc2)cc1 the T/C (dose: 7.2 mg/kg/injection, schedule: Q01DX009 (ip), vehicle: water) was 163 % of control.
